This note sets out measurements from PMC4801998 (2016).

SMILES strings stand for the structures.

Experiment [1] concerns F21D (DNA, G4) GGGTTAGGGTTAGGGTTAGGG
Nature of the experiment: FRET melting. As to conditions: 5 mM KCl, 95 mM LiCl; 10 mM lithium cacodylate, pH 7.2; 0.4 µM ligand, 0.2 µM F21D.

Experiment [2] relates to Tel22 (DNA, G4) AGGGTTAGGGTTAGGGTTAGGG
Nature of the experiment: UV-Vis titration, direct fit. As to conditions: 5 mM KCl, 95 mM LiCl, 10 mM lithium cacodylate, stoichiometry fixed, equivalent sites.

Experiment [3] deals with G4T4G4 (DNA, G4) GGGGTTTTGGGG
Nature of the experiment: fluorescence light-switch, plate reader. As to conditions: 10 mM lithium cacodylate, pH 7.2, 25 °C, about 0.1 µM PtTMPyP4, DNA:porphyrin 50:1, intensity ratio, not affinity.

Experiment [4] concerns VEGF (DNA, G4) GGGAGGGTTGGGGTGGG
The experiment can be described thus: fluorescence light-switch, plate reader. As to conditions: 5 mM KCl, 95 mM LiCl; 10 mM lithium cacodylate, pH 7.2, 25 °C; about 0.1 µM PtTMPyP4, DNA:porphyrin 50:1; intensity ratio, not affinity.

The test system of experiment [5] is 17B (DNA, single strand) GGGTTACTACGAACTGG
Nature of the experiment: fluorescence light-switch, plate reader. As to conditions: 5 mM KCl, 95 mM LiCl; 10 mM lithium cacodylate, pH 7.2, 25 °C; about 0.1 µM PtTMPyP4, DNA:porphyrin 50:1; intensity ratio, not affinity.

Experiment [6] relates to G4TERT (DNA, G4) AGGGGAGGGGCTGGGAGGGC
Nature of the experiment: fluorescence light-switch, plate reader. As to conditions: 5 mM KCl, 95 mM LiCl; 10 mM lithium cacodylate, pH 7.2, 25 °C; about 0.1 µM PtTMPyP4, DNA:porphyrin 50:1; intensity ratio, not affinity.

Experiment [7] has as its system 17A (DNA, single strand) CCAGTTCGTAGTAACCC
Nature of the experiment: fluorescence light-switch, plate reader. As to conditions: 5 mM KCl, 95 mM LiCl; 10 mM lithium cacodylate, pH 7.2, 25 °C; about 0.1 µM PtTMPyP4, DNA:porphyrin 50:1; intensity ratio, not affinity.

For experiment [8], the system named is cKit1 (DNA, G4) GGGAGGGCGCTGGGAGGAGGG
The experiment can be described thus: fluorescence light-switch, plate reader. As to conditions: 5 mM KCl, 95 mM LiCl; 10 mM lithium cacodylate, pH 7.2, 25 °C; about 0.1 µM PtTMPyP4, DNA:porphyrin 50:1; intensity ratio, not affinity.

The subject of experiment [9] is ds26 (DNA, duplex) CAATCGGATCGAATTCGATCCGATTG
The experiment can be described thus: fluorescence light-switch, plate reader. As to conditions: 5 mM KCl, 95 mM LiCl; 10 mM lithium cacodylate, pH 7.2, 25 °C; about 0.1 µM PtTMPyP4, DNA:porphyrin 50:1; intensity ratio, not affinity.

For experiment [10], the system named is Tel22 (DNA, G4) AGGGTTAGGGTTAGGGTTAGGG
The experiment can be described thus: fluorescence light-switch, plate reader. As to conditions: 10 mM lithium cacodylate, pH 7.2, 25 °C, about 0.1 µM PtTMPyP4, DNA:porphyrin 50:1, intensity ratio, not affinity.

Experiment [11] concerns 26TelG4 (DNA, G4) AGGGGTTAGGGGTTAGGGGTTAGGGG
The experiment can be described thus: fluorescence light-switch, plate reader. As to conditions: 10 mM lithium cacodylate, pH 7.2, 25 °C, about 0.1 µM PtTMPyP4, DNA:porphyrin 50:1, intensity ratio, not affinity.

Experiment [12] deals with TBA (DNA, G4) GGTTGGTGTGGTTGG
The experiment can be described thus: fluorescence light-switch, plate reader. As to conditions: 10 mM lithium cacodylate, pH 7.2, 25 °C, about 0.1 µM PtTMPyP4, DNA:porphyrin 50:1, intensity ratio, not affinity.

Experiment [13] concerns Tel22 (DNA, G4) AGGGTTAGGGTTAGGGTTAGGG
Nature of the experiment: fluorescence titration, direct fit. As to conditions: 5 mM KCl, 95 mM LiCl; 10 mM lithium cacodylate, pH 7.2, 20 °C; 1.7-2.0 µM PtTMPyP4; equivalent sites.

For experiment [14], the system named is 17AB (DNA, duplex) CCAGTTCGTAGTAACCC/GGGTTACTACGAACTGG
The experiment can be described thus: fluorescence light-switch, plate reader. As to conditions: 5 mM KCl, 95 mM LiCl; 10 mM lithium cacodylate, pH 7.2, 25 °C; about 0.1 µM PtTMPyP4, DNA:porphyrin 50:1; intensity ratio, not affinity.

Experiment [15] concerns Bcl-2 (DNA, G4) GGGCGCGGGAGGGAATTGGGCGGG
The experiment can be described thus: fluorescence light-switch, plate reader. As to conditions: 5 mM KCl, 95 mM LiCl; 10 mM lithium cacodylate, pH 7.2, 25 °C; about 0.1 µM PtTMPyP4, DNA:porphyrin 50:1; intensity ratio, not affinity.

For experiment [16], the system named is cMyc (DNA, G4) TGAGGGTGGGTAGGGTGGGTAA
The experiment can be described thus: fluorescence light-switch, plate reader. As to conditions: 5 mM KCl, 95 mM LiCl; 10 mM lithium cacodylate, pH 7.2, 25 °C; about 0.1 µM PtTMPyP4, DNA:porphyrin 50:1; intensity ratio, not affinity.

As for `C[n+]1ccc(-c2c3nc(c(-c4cc[n+](C)cc4)c4ccc([n-]4)c(-c4cc[n+](C)cc4)c4nc(c(-c5cc[n+](C)cc5)c5ccc2[n-]5)C=C4)C=C3)cc1.[Pd+2]`, in experiment [1], the ΔTm was determined as 30.9 ± 0.4 °C. Besides, the binding affinity entry in [2] (pH 7.2) is reported as “(1.0 ± 0.3) × 10^7 M^-1”.
For `C[n+]1ccc(-c2c3nc(c(-c4cc[n+](C)cc4)c4ccc([n-]4)c(-c4cc[n+](C)cc4)c4nc(c(-c5cc[n+](C)cc5)c5ccc2[n-]5)C=C4)C=C3)cc1.[Pt+2]`, the Fluorescence enhancement in experiment [3] (5 mM KCl, 95 mM LiCl) stood at 42.2 ± 9.2; in [3] (50 mM NaCl, 50 mM LiCl), 40.5 ± 12; in experiment [4] it was 76.9 ± 3.8; in [5], 43.9 ± 3.0; in experiment [6] it was 85.7 ± 0.9; in experiment [7], 38.1 ± 1.5. In addition, the Fluorescence enhancement was found to be 28.0 ± 5.6 in [8]; 39.1 ± 5.2 in experiment [9]; 71.8 ± 10 in [10] (5 mM KCl, 95 mM LiCl); 54.2 ± 14.6 in [10] (50 mM NaCl, 50 mM LiCl); 65.4 ± 4.8 in experiment [11] (5 mM KCl, 95 mM LiCl); 54.1 ± 15 in [11] (50 mM NaCl, 50 mM LiCl). Further, the Fluorescence enhancement is given as 29.5 ± 5.4 in [12] (5 mM KCl, 95 mM LiCl); 32.6 ± 6.8 in [12] (50 mM NaCl, 50 mM LiCl); 46.0 ± 0.7 in experiment [14]; 39.2 ± 5.7 in [15]; 28.0 ± 5.0 in experiment [16]. The ΔTm in experiment [1] is 30.7 ± 0.6 °C. For the same molecule, in experiment [2] (pH 7.2, 20 °C), the binding affinity entry is “(5.8 ± 0.8) × 10^6 M^-1”. Further, in [13], the binding constant result is “(1.8 ± 0.3) × 10^6 M^-1”.

In general, ΔTm refers to the shift of the melting midpoint relative to a reference.
